According to patent US20040023951A1, “Combination therapy for treatment of psychoses” (priority 2002, published 2004):
“And” between values parts separate entries of the source, which are not always exact repeats. Identical values can stand only once.

System: Rats
Assay: Conditioned avoidance behavior in rats
Format: in vivo, rat
Description: Conditioned Avoidance Behavior in Rats:
In a conditioned avoidance test, animals learn to respond during a conditioned stimulus in order to avoid mild shock presentation. A response during the conditioned stimulus is termed an avoidance response, a response during shock is termed an escape response; a response failure is when the animal fails to respond during either the conditioned stimulus or the shock presentation and is indicative of motor impairment. […] Antipsychotic drugs decrease the percentage of avoidance responses without interfering with the ability of the animal to respond since the animals do emit escape responses. The percentage of response failures is considered a measure of motor impairment.
Rats were required to press a response lever in an experimental chamber in order to avoid or escape foot-shock. Each experimental session consisted of 50 trials. During each trial, the chamber was illuminated and a tone presented for a maximum of 10 sec. A response during the tone immediately terminated the tone and the houselight, ending the trial. In the absence of a response during the tone alone, tone+foot-shock (2.0 mA) was presented for a maximum of 10 sec. A response during shock presentation immediately terminated the shock, the tone and the houselights ending the trial.
If the effects are simply additive the results will be additive. If the effects of are synergistic, then the dose of second component required to produce full efficacy will be decreased.

[1] = first component dose 0.16 in combination with Xanomeline dose 10
[2] = first component dose 0.32 in combination with Xanomeline dose 10
[3] = first component dose 0.625 in combination with Xanomeline dose 10
[4] = first component dose 1.25 in combination with Xanomeline dose 10
[5] = first component dose 2.5 in combination with Xanomeline dose 10
[6] = first component dose 0.01 in combination with Xanomeline dose 10
[7] = first component dose 0.03 in combination with Xanomeline dose 10
[8] = first component dose 0.1 in combination with Xanomeline dose 10
[9] = first component dose 0.3 in combination with Xanomeline dose 10
[10] = first component dose 0.001 in combination with Xanomeline dose 10
[11] = first component dose 0.003 in combination with Xanomeline dose 10
[12] = given alone, dose 0.03 (dose unit not given)
[13] = Xanomeline dose 10 with first component dose 0 (combination series)

Row | Structure (SMILES) | % Avoidance Responses ± SEM (given alone, dose 10) | % Response Failures ± SEM (given alone, dose 10) | % Avoidance Responses ± SEM [6] | % Response Failures ± SEM [6] | % Avoidance Responses ± SEM [7] | % Response Failures ± SEM [7] | % Avoidance Responses ± SEM [8] | % Avoidance Responses ± SEM [9] | % Avoidance Responses ± SEM (given alone, dose 0.1) | % Response Failures ± SEM (given alone, dose 0.1) | % Avoidance Responses ± SEM (given alone, dose 0.3) | % Response Failures ± SEM (given alone, dose 0.3) | % Avoidance Responses ± SEM (given alone, dose 1) | % Response Failures ± SEM (given alone, dose 1) | % Avoidance Responses ± SEM [10] | % Avoidance Responses ± SEM [11] | % Avoidance Responses ± SEM [12] | % Avoidance Responses ± SEM (given alone, dose 3) | also measured
1 | CN(C)CCCN1c2ccccc2Sc2ccc(Cl)cc21 [Chlorpromazine] | 10 ± 4% | 16 ± 8% |  |  |  |  |  |  |  |  |  |  |  |  |  |  |  |  | % Avoidance Responses ± SEM [1]: 56 ± 11%; % Response Failures ± SEM [1]: 1 ± 1%; % Avoidance Responses ± SEM [2]: 46 ± 22%; % Response Failures ± SEM [2]: 19 ± 19%; % Avoidance Responses ± SEM [3]: 30 ± 17%; % Response Failures ± SEM [3]: 0 ± 0%; % Avoidance Responses ± SEM [4]: 20 ± 10%; % Response Failures ± SEM [4]: 8 ± 7%; % Avoidance Responses ± SEM [5]: 22 ± 7%; % Response Failures ± SEM [5]: 1 ± 0%; % Avoidance Responses ± SEM (given alone, dose 1.25): 99 ± 1%; % Response Failures ± SEM (given alone, dose 1.25): 0 ± 0%; % Avoidance Responses ± SEM (given alone, dose 2.5): 96 ± 4%; % Response Failures ± SEM (given alone, dose 2.5): 0 ± 0%; % Avoidance Responses ± SEM (given alone, dose 5): 27 ± 12%; % Response Failures ± SEM (given alone, dose 5): 7 ± 5%
2 | OCCN1CCN(CCCN2c3ccccc3Sc3ccc(C(F)(F)F)cc32)CC1 [Fluphenazine] |  |  | 77 ± 12% | 1 ± 0% | 52 ± 12% | 3 ± 2% | 66 ± 11% | 33 ± 16% | 100 ± 0% | 0 ± 0% | 67 ± 9% | 2 ± 1% | 33 ± 6% | 28 ± 9% |  |  |  |  | % Response Failures ± SEM [8]: 0 ± 0%; % Response Failures ± SEM [9]: 6 ± 6%
3 | O=C(CCCN1CCC(O)(c2ccc(Cl)cc2)CC1)c1ccc(F)cc1 [Haloperidol] |  |  | 57 ± 6% | 1 ± 0% | 27 ± 8% | 8 ± 6% |  |  | 59.0 ± 13.0% | 2 ± 1% | 10.0 ± 2.0% | 25 ± 12% |  |  | 70 ± 12% | 45 ± 13% | 98.0 ± 1.0% |  | % Response Failures ± SEM [10]: 5 ± 3%; % Response Failures ± SEM [11]: 14 ± 11%; % Response Failures ± SEM (given alone, dose 0.03 (dose unit not given), measure of motor impairment): 1 ± 0%
4 | Cc1cc2c(s1)Nc1ccccc1N=C2N1CCN(C)CC1 [Olanzapine, 2-methyl-4-(4-methyl-1-piperazinyl)-10H-thieno[2,3-b][1,5]benzodiazepine] | 2 ± 1% |  | 66 ± 11% |  | 47 ± 12% |  | 56 ± 6% | 53 ± 14% |  |  |  |  | 98 ± 1% |  |  |  |  | 59 ± 16% | % Avoidance Responses ± SEM (first component dose 1.0 in combination with Xanomeline dose 10): 9 ± 6%
5 | Cc1nc2n(c(=O)c1CCN1CCC(c3noc4cc(F)ccc34)CC1)CCCC2 [Risperidone, 3-[2-[4-(6-fluoro-1,2-benzisoxazol-3-yl)piperidino]ethyl]-2-methyl-6,7,8,9-tetrahydro-4H-pyrido[1,2-a]pyrimidin-4-one] |  |  | 23 ± 14% |  | 8 ± 2% |  |  |  | 91 ± 5% |  | 37 ± 11% |  | 2 ± 1% |  | 48 ± 8% | 48 ± 16% | 100 ± 0% |  | 
6 | CCCCCCOc1nsnc1C1=CCCN(C)C1 [Xanomeline, 3-(4-hexyloxy-1,2,5-thiadiazol-3-yl)-1,2,5,6-tetrahydro-1-methylpyridine] | 44 ± 18% and 78 ± 12% and 63 ± 18% | 2 ± 1% and 1 ± 0% |  |  |  |  |  |  |  |  |  |  | 98 ± 2% and 99 ± 0% | 0 ± 0% |  |  |  | 93 ± 3% and 99 ± 1% | % Avoidance Responses ± SEM [13]: 87 ± 9% and 56 ± 13% and 72 ± 13%; % Response Failures ± SEM [13]: 0 ± 0%; % Response Failures ± SEM (given alone, dose 3): 0 ± 0%; % Avoidance Responses ± SEM (given alone, dose 17.5): 11 ± 4%; % Response Failures ± SEM (given alone, dose 17.5): 2 ± 1%
